Patent publication US20130089568A1, “HAIR GROWTH STIMULATOR BASED ON ECKLONIA CAVA EXTRACT, PREPARATION METHOD THEREOF, AND COSMETIC COMPOSITION CONTAINING THE SAME” (priority 2011, published 2013)

Assays:
Type in all cases: cell-based
hair-related cells = assay: Test of isolated active substances using hair-related cells in an in vitro system
Source text: The 7′-fluoroeckol compound is disclosed in Korean Patent Application No. 10-2011-0000141. The present invention aims to find a dioxinodehydroeckol compound and an Ecklonia cava extract using an extraction method capable of improving hair growth effects.

[1] = tested on: human follicle dermal papilla cells; assay: Cell viability of human follicle dermal papilla cells (MTT assay)
Experimental: The cell viability of human follicle dermal papilla cells were measured using a 3-(4,5-dimethylthiazole-2-yl)-2,5-diphenyl-tetrazolium bromide [MTT] assay.
Specifically, 100 μL of cells were dispensed into each well of 96-well plates at a concentration of 1×10^6 cells/ml and cultured for 24 hours. A sample was prepared in a medium free of FBS and 1% penicillin/streptomycin at various concentrations, and the cells was treated with the sample and incubated for 24 hours. The cells were treated with an MTT solution (5 mg/mL) for 3 hours, and then the MTT was reduced and the medium was carefully removed such that the produced formazan was not removed. Then, 100 μL of dimethyl sulfoxide (DMSO) was dispensed into each well, and after 30 minutes, the absorbance at 570 nm was measured.

[2] = tested on: human follicle dermal papilla cells; assay: Protein expression test (Western blotting) in human follicle dermal papilla cells; details: 0.1 μM, 24 hours
Experimental: (§1) Human follicle dermal papilla cells were purchased from Promo Cell (Heidelberg, Germany). The cells were cultured in a ready-to-use HFDPC medium composed of a basal medium, FCS (fetal calf serum) and a supplement kit Promo Cell (Heidelberg, Germany) containing basal FGF and insulin. For subculture, a kit containing HBSS (HEPES buffered saline), trypsin/EDTA solution and neutralizing solution (Promo Cell, Heidelberg, Germany) was used. Human follicle dermal papilla cells at passages 4 to 6 were used in the test and cultured in a T-25 flask containing 5 ml of medium under the conditions of 37° C. and 5% CO2.
In order to examine the mechanisms of action of the purified extract of Ecklonia cava and the dioxinodehydroeckol compound on the proliferation of human follicle dermal papilla cells, Western blotting was carried out according to standard protocol.
Specifically, the cells were seeded into a 6-well medium together with a serum-free medium and cultured for 24 hours (1.0×10^6 cells/well). Then, the medium was replaced with a fresh medium, and the cells were treated with various concentrations of a sample for 1-24 hours. […] The cells were cultured with horseradish-peroxidase-conjugated secondary antibody at room temperature, and then immune-reactive protein was detected using an enhanced chemiluminescence (ECL) analysis kit according to the manufacturer's instruction. […]

[3] = tested on: human follicle dermal papilla cells; assay: mRNA expression (RT-PCR) in human follicle dermal papilla cells; details: 0.1 μM, 24 hours
Experimental: as §1
In order to examine the mechanisms of action of the purified extract of Ecklonia cava and the dioxinodehydroeckol compound on the proliferation of human follicle dermal papilla cells, reverse transcription polymerase chain reaction (RT-PCR) was performed according to a standard protocol. Specifically, the cells were seeded into a 6-well plate together with a serum-free medium and cultured for 24 hours (1.0×10^6 cells/well). Then, the medium was replaced with a fresh medium, and the cells were treated with various concentrations of a test material for 24 hours and then lysed with TRIzol® (Invitrogen).

human hair tissue = assay: Evaluation of hair growth by culture of human hair tissue; details: 0.1 μM
Experimental: Human hair tissue provided from Immunobiology Laboratory, Kyungpook National University, was used in the test and cultured in a CO2 incubator at 37° C. with Williams E media (Sigma, USA) containing 2 mM L-glutamin, 100 U/ml streptomycin and 10 ng/ml hydrocortisone. The tissue was cultured with various concentrations of the test material for 6 days, and the length of the hair tissue was measured at days 3 and 6.

| Molecule | influence on hair-related cells (hair-related cells) | cell viability ([1]; 1 μM, listed as minoidil) [%] | viability at 1 µM ([1]; Homo sapiens, 1 μM) [%] | viability at 0.1 µM ([1]; Homo sapiens, 0.1 μM, read-out: highest cell viability) [%] | viability of the human follicle dermal papilla cells compared to untreated control ([1]; concentration range of 0.001-5 μM, FIG. 1c) | expression level of BMP2/4 protein, increase compared to untreated control [2] [times] | expression level of β-catenin protein, increase compared to untreated control [2] [times] | expression level of ALP mRNA, increase [3] [times] | expression level of VCAN mRNA, increase [3] [times] | expression level of VEGF mRNA, increase [3] [times] | increased hair length (human hair tissue; day 3) [mm] | increased hair length (human hair tissue; day 6) [mm] |
| --- | --- | --- | --- | --- | --- | --- | --- | --- | --- | --- | --- | --- |
| 7′-fluoroeckol [7′-fluoroeckol compound] | specifically influence hair-related cells | – | – | – | – | – | – | – | – | – | – | – |
| Nc1cc(N2CCCCC2)nc(N)[n+]1[O-] [Minoxidil, reference compound] | – | 121 | 119 | – | – | – | – | – | – | – | – | – |
| Oc1cc(O)c2oc3cc(O)c4oc5cc(O)cc(O)c5oc4c3oc2c1 [dioxinodehydroeckol] | specifically influence hair-related cells | – | – | 142 | significantly increased | 1.8 | 2.0 | 1.5 | 1.8 | 1.3 | 0.84 | 1.43 |
